The target of assay [1] is T1, Genome polyprotein (dengue virus type 2, UniProt P29990). The assay is classed as functional, Thailand/16681/1984.
Assay [2] addresses T1, Genome polyprotein. The class given is functional, Thailand/16681/1984. The source holds these as a separate data set.

Molecules are shown by their SMILES. pIC50: −log10 of the molar value. Values joined by “and” are separate entries in the source; they are usually repeats but may differ in a detail not shown here. Identical values can stand only once.

T1 sequence (P29990 1346-1475 limits assumed): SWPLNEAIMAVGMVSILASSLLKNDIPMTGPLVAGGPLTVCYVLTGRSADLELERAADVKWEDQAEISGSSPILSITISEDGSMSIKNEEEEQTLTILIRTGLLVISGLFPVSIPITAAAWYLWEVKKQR
T1 sequence (P29990 1476-2093 limits assumed): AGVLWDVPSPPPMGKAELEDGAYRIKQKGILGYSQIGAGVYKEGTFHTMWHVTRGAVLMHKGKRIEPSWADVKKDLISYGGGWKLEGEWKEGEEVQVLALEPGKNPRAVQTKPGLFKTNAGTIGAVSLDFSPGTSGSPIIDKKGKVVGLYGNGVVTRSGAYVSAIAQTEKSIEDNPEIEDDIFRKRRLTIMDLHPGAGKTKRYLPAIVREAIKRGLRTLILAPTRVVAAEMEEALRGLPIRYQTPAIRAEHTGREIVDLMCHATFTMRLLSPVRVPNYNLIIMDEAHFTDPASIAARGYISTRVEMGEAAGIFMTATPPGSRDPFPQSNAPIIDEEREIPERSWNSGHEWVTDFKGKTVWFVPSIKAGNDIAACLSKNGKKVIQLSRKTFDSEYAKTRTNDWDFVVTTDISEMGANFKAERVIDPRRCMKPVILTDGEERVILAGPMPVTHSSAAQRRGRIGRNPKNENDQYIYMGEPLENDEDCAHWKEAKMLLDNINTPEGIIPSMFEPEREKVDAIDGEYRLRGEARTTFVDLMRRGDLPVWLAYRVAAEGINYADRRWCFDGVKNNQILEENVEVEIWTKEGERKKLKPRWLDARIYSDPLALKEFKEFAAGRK

By pIC50 is commonly meant the negative decadic logarithm of the IC50, by convention in mol/L. The low end stands for a large IC50, the high end for a small IC50. With `O=C(NCC(F)F)[C@H](Nc1ccc2c(c1)CNC2)c1cc(Cl)cc2cccnc12`, the pIC50 in assay [1] is 4.03; in assay [2] it was 3.89 and 3.90.
